Assay results: ChEMBL document CHEMBL1201861, “Genomics of Drug Sensitity in Cancer screening data, Wellcome Trust Sanger Institute”
pIC50: −log10 of the molar value.

Key:
Experiment in all cases: cells
D283 Med = type: functional, cell-based, Homo sapiens; conditions: Homo sapiens, D283 Med
Description: SANGER: Inhibition of human D-283MED cell growth in a cell viability assay.

DK-MG = type: functional, cell-based, Homo sapiens; conditions: Homo sapiens, DK-MG
Description: SANGER: Inhibition of human DK-MG cell growth in a cell viability assay.

NCI-H2347 = type: functional, cell-based, Homo sapiens; conditions: Homo sapiens, NCI-H2347
Description: SANGER: Inhibition of human NCI-H2347 cell growth in a cell viability assay.

HCC1937 = type: functional, cell-based, Homo sapiens; conditions: Homo sapiens, HCC1937
Description: SANGER: Inhibition of human HCC1937 cell growth in a cell viability assay.

RPMI-2650 = type: functional, cell-based, Homo sapiens; conditions: Homo sapiens, RPMI-2650
Description: SANGER: Inhibition of human RPMI-2650 cell growth in a cell viability assay.

MC-IXC = type: functional, cell-based, Homo sapiens; conditions: Homo sapiens, MC-IXC
Description: SANGER: Inhibition of human MC-IXC cell growth in a cell viability assay.

SK-LMS-1 = type: functional, cell-based, Homo sapiens; conditions: Homo sapiens, SK-LMS-1
Description: SANGER: Inhibition of human SK-LMS-1 cell growth in a cell viability assay.

ES6 = type: functional, cell-based, Homo sapiens; conditions: Homo sapiens, ES6
Description: SANGER: Inhibition of human ES6 cell growth in a cell viability assay.

RD = type: functional, cell-based, Homo sapiens; conditions: Homo sapiens, RD
Description: SANGER: Inhibition of human RD cell growth in a cell viability assay.

MFH-ino = type: functional, cell-based; conditions: Homo sapiens
Description: SANGER: Inhibition of human MFH-ino cell growth in a cell viability assay.

SN12C = type: functional, cell-based, Homo sapiens; conditions: Homo sapiens, SN12C
Description: SANGER: Inhibition of human SN12C cell growth in a cell viability assay.

AN3-CA = type: functional, cell-based; conditions: Homo sapiens
Description: SANGER: Inhibition of human AN3-CA cell growth in a cell viability assay.

CAL-51 = type: functional, cell-based, Homo sapiens; conditions: Homo sapiens, CAL-51
Description: SANGER: Inhibition of human CAL-51 cell growth in a cell viability assay.

SBC-1 = type: functional, cell-based; conditions: Homo sapiens
Description: SANGER: Inhibition of human SBC-1 cell growth in a cell viability assay.

SNU-449 = type: functional, cell-based, Homo sapiens; conditions: Homo sapiens, SNU-449
Description: SANGER: Inhibition of human SNU-449 cell growth in a cell viability assay.

NCI-H1437 = type: functional, cell-based, Homo sapiens; conditions: Homo sapiens, NCI-H1437
Description: SANGER: Inhibition of human NCI-H1437 cell growth in a cell viability assay.

CAMA-1 = type: functional, cell-based, Homo sapiens; conditions: Homo sapiens, CAMA-1
Description: SANGER: Inhibition of human CAMA-1 cell growth in a cell viability assay.

SK-PN-DW = type: functional, cell-based; conditions: Homo sapiens
Description: SANGER: Inhibition of human SK-PN-DW cell growth in a cell viability assay.

WM-115 = type: functional, cell-based, Homo sapiens; conditions: Homo sapiens, WM-115
Description: SANGER: Inhibition of human WM-115 cell growth in a cell viability assay.

EW-11 = type: functional, cell-based, Homo sapiens; conditions: Homo sapiens, EW-11
Description: SANGER: Inhibition of human EW-11 cell growth in a cell viability assay.

KLE = type: functional, cell-based, Homo sapiens; conditions: Homo sapiens, KLE
Description: SANGER: Inhibition of human KLE cell growth in a cell viability assay.

IA-LM = type: functional, cell-based, Homo sapiens; conditions: Homo sapiens, IA-LM
Description: SANGER: Inhibition of human IA-LM cell growth in a cell viability assay.

NCI-H2122 = type: functional, cell-based, Homo sapiens; conditions: Homo sapiens, NCI-H2122
Description: SANGER: Inhibition of human NCI-H2122 cell growth in a cell viability assay.

HCC2218 = type: functional, cell-based; conditions: Homo sapiens
Description: SANGER: Inhibition of human HCC2218 cell growth in a cell viability assay.

MKN-1 = type: functional, cell-based, Homo sapiens; conditions: Homo sapiens, MKN-1
Description: SANGER: Inhibition of human MKN1 cell growth in a cell viability assay.

Huh-7 = type: functional, cell-based, Homo sapiens; conditions: Homo sapiens, Huh-7
Description: SANGER: Inhibition of human HuH-7 cell growth in a cell viability assay.

639-V = type: functional, cell-based, Homo sapiens; conditions: Homo sapiens, 639-V
Description: SANGER: Inhibition of human 639-V cell growth in a cell viability assay.

IST-SL1 = type: functional, cell-based, Homo sapiens; conditions: Homo sapiens, IST-SL1
Description: SANGER: Inhibition of human IST-SL1 cell growth in a cell viability assay.

ALL-PO = type: functional, cell-based; conditions: Homo sapiens
Description: SANGER: Inhibition of human ALL-PO cell growth in a cell viability assay.

SAOS-2 = type: functional, cell-based, Homo sapiens; conditions: Homo sapiens, SAOS-2
Description: SANGER: Inhibition of human Saos-2 cell growth in a cell viability assay.

GAK = type: functional, cell-based, Homo sapiens; conditions: Homo sapiens, GAK
Description: SANGER: Inhibition of human GAK cell growth in a cell viability assay.

A388 = type: functional, cell-based, Homo sapiens; conditions: Homo sapiens, A388
Description: SANGER: Inhibition of human A388 cell growth in a cell viability assay.

SW982 = type: functional, cell-based; conditions: Homo sapiens
Description: SANGER: Inhibition of human SW982 cell growth in a cell viability assay.

KE-37 = type: functional, cell-based; conditions: Homo sapiens
Description: SANGER: Inhibition of human KE-37 cell growth in a cell viability assay.

MDA-MB-453 = type: functional, cell-based, Homo sapiens; conditions: Homo sapiens, MDA-MB-453
Description: SANGER: Inhibition of human MDA-MB-453 cell growth in a cell viability assay.

KS-1 = type: functional, cell-based, Homo sapiens; conditions: Homo sapiens, KS-1
Description: SANGER: Inhibition of human KS-1 cell growth in a cell viability assay.

BHT-101 = type: functional, cell-based, Homo sapiens; conditions: Homo sapiens, BHT-101
Description: SANGER: Inhibition of human BHT-101 cell growth in a cell viability assay.

MEG-01 = type: functional, cell-based; conditions: Homo sapiens
Description: SANGER: Inhibition of human MEG-01 cell growth in a cell viability assay.

VA-ES-BJ = type: functional, cell-based, Homo sapiens; conditions: Homo sapiens, VA-ES-BJ
Description: SANGER: Inhibition of human VA-ES-BJ cell growth in a cell viability assay.

NY = type: functional, cell-based, Homo sapiens; conditions: Homo sapiens, NY
Description: SANGER: Inhibition of human NY cell growth in a cell viability assay.

LAN-6 = type: functional, cell-based, Homo sapiens; conditions: Homo sapiens, LAN-6
Description: SANGER: Inhibition of human LAN-6 cell growth in a cell viability assay.

CAL-120 = type: functional, cell-based, Homo sapiens; conditions: Homo sapiens, CAL-120
Description: SANGER: Inhibition of human CAL-120 cell growth in a cell viability assay.

OVCAR-5 = type: functional, cell-based, Homo sapiens; conditions: Homo sapiens, OVCAR-5
Description: SANGER: Inhibition of human OVCAR-5 cell growth in a cell viability assay.

5637 = type: functional, cell-based, Homo sapiens; conditions: Homo sapiens
Description: SANGER: Inhibition of human 5637 cell growth in a cell viability assay.

NCI-H1581 = type: functional, cell-based, Homo sapiens; conditions: Homo sapiens, NCI-H1581
Description: SANGER: Inhibition of human NCI-H1581 cell growth in a cell viability assay.

SF-268 = type: functional, cell-based, Homo sapiens; conditions: Homo sapiens, SF-268
Description: SANGER: Inhibition of human SF268 cell growth in a cell viability assay.

COLO-800 = type: functional, cell-based, Homo sapiens; conditions: Homo sapiens, COLO-800
Description: SANGER: Inhibition of human COLO-800 cell growth in a cell viability assay.

C3A = type: functional, cell-based, Homo sapiens; conditions: Homo sapiens, C3A
Description: SANGER: Inhibition of human C3A cell growth in a cell viability assay.

A4-Fuk = type: functional, cell-based; conditions: Homo sapiens
Description: SANGER: Inhibition of human A4-Fuk cell growth in a cell viability assay.

EW-3 = type: functional, cell-based; conditions: Homo sapiens
Description: SANGER: Inhibition of human EW-3 cell growth in a cell viability assay.

HCC1954 = type: functional, cell-based, Homo sapiens; conditions: Homo sapiens, HCC1954
Description: SANGER: Inhibition of human HCC1954 cell growth in a cell viability assay.

LS-123 = type: functional, cell-based, Homo sapiens; conditions: Homo sapiens, LS-123
Description: SANGER: Inhibition of human LS-123 cell growth in a cell viability assay.

## COC(=O)CNC(=O)C(=O)OC
D283 Med
  pIC50: 3.28
DK-MG
  pIC50: 3.28
NCI-H2347
  pIC50: 3.92
HCC1937
  pIC50: 3.05
RPMI-2650
  pIC50: 3.55
MC-IXC
  pIC50: 4.01
SK-LMS-1
  pIC50: 3.92
ES6
  pIC50: 2.45
RD
  pIC50: 3.16
MFH-ino
  pIC50: 3.19
SN12C
  pIC50: 3.59
AN3-CA
  pIC50: 3.68
CAL-51
  pIC50: 3.62
SBC-1
  pIC50: 2.85
SNU-449
  pIC50: 4.03
NCI-H1437
  pIC50: 4.04
CAMA-1
  pIC50: < 2.40
SK-PN-DW
  pIC50: 3.67
WM-115
  pIC50: 3.66
EW-11
  pIC50: 2.98
KLE
  pIC50: 2.80
IA-LM
  pIC50: 3.82
NCI-H2122
  pIC50: 4.13
HCC2218
  pIC50: < 2.40
MKN-1
  pIC50: 2.66
Huh-7
  pIC50: 4.21
639-V
  pIC50: 2.82
IST-SL1
  pIC50: 3.31
ALL-PO
  pIC50: 4.16
SAOS-2
  pIC50: 3.71
GAK
  pIC50: 3.11
A388
  pIC50: 2.61
SW982
  pIC50: 4.47
KE-37
  pIC50: 4.36
MDA-MB-453
  pIC50: < 2.40
KS-1
  pIC50: 4.95
BHT-101
  pIC50: < 2.40
MEG-01
  pIC50: 3.31
VA-ES-BJ
  pIC50: 3.04
NY
  pIC50: 3.14
LAN-6
  pIC50: 2.68
CAL-120
  pIC50: 3.09
OVCAR-5
  pIC50: 3.34
5637
  pIC50: 3.07
NCI-H1581
  pIC50: 3.14
SF-268
  pIC50: 3.38
COLO-800
  pIC50: < 2.40
C3A
  pIC50: 3.80
A4-Fuk
  pIC50: 4.35
EW-3
  pIC50: 2.72
HCC1954
  pIC50: 3.05
LS-123
  pIC50: < 2.40

## CN(C)C/C=C/C(=O)Nc1cc2c(Nc3ccc(F)c(Cl)c3)ncnc2cc1O[C@H]1CCOC1 [AFATINIB]
D283 Med
  pIC50: […]
DK-MG
  pIC50: […]
NCI-H2347
  pIC50: […]
HCC1937
  pIC50: […]
RPMI-2650
  pIC50: […]
MC-IXC
  pIC50: […]
SK-LMS-1
  pIC50: […]
ES6
  pIC50: […]
RD
  pIC50: […]
MFH-ino
  pIC50: […]
SN12C
  pIC50: […]
AN3-CA
  pIC50: […]
CAL-51
  pIC50: […]
SBC-1
  pIC50: 6.72
SNU-449
  pIC50: […]
NCI-H1437
  pIC50: […]
CAMA-1
  pIC50: […]
SK-PN-DW
  pIC50: […]
WM-115
  pIC50: […]
EW-11
  pIC50: […]
KLE
  pIC50: […]
IA-LM
  pIC50: […]
NCI-H2122
  pIC50: […]
HCC2218
  pIC50: 8.01
MKN-1
  pIC50: […]
Huh-7
  pIC50: […]
639-V
  pIC50: […]
IST-SL1
  pIC50: […]
ALL-PO
  pIC50: […]
SAOS-2
  pIC50: […]
GAK
  pIC50: […]
A388
  pIC50: 6.43
SW982
  pIC50: […]
KE-37
  pIC50: […]
MDA-MB-453
  pIC50: […]
KS-1
  pIC50: […]
BHT-101
  pIC50: […]
MEG-01
  pIC50: […]
VA-ES-BJ
  pIC50: […]
NY
  pIC50: […]
LAN-6
  pIC50: […]
CAL-120
  pIC50: […]
OVCAR-5
  pIC50: […]
5637
  pIC50: […]
NCI-H1581
  pIC50: […]
SF-268
  pIC50: […]
COLO-800
  pIC50: […]
C3A
  pIC50: […]
A4-Fuk
  pIC50: […]
EW-3
  pIC50: […]
HCC1954
  pIC50: […]
LS-123
  pIC50: […]

## O=C(NOCC1CC1)c1ccc(F)c(F)c1Nc1ccc(I)cc1Cl [CI-1040]
D283 Med
  pIC50: < 5.00
DK-MG
  pIC50: 5.04
NCI-H2347
  pIC50: < 5.00
HCC1937
  pIC50: 5.03
RPMI-2650
  pIC50: < 5.00
MC-IXC
  pIC50: < 5.00
SK-LMS-1
  pIC50: < 5.00
ES6
  pIC50: < 5.00
RD
  pIC50: 5.61
MFH-ino
  pIC50: < 5.00
SN12C
  pIC50: 5.49
AN3-CA
  pIC50: 5.17
CAL-51
  pIC50: < 5.00
SBC-1
  pIC50: 5.05
SNU-449
  pIC50: < 5.00
NCI-H1437
  pIC50: 5.81
CAMA-1
  pIC50: < 5.00
SK-PN-DW
  pIC50: < 5.00
WM-115
  pIC50: 6.31
EW-11
  pIC50: < 5.00
KLE
  pIC50: < 5.00
IA-LM
  pIC50: < 5.00
NCI-H2122
  pIC50: 5.18
HCC2218
  pIC50: 5.58
MKN-1
  pIC50: < 5.00
Huh-7
  pIC50: 5.28
639-V
  pIC50: 5.02
IST-SL1
  pIC50: < 5.00
ALL-PO
  pIC50: 5.36
SAOS-2
  pIC50: < 5.00
GAK
  pIC50: 5.48
A388
  pIC50: < 5.00
SW982
  pIC50: < 5.00
KE-37
  pIC50: < 5.00
MDA-MB-453
  pIC50: < 5.00
KS-1
  pIC50: < 5.00
BHT-101
  pIC50: 6.54
MEG-01
  pIC50: 5.03
VA-ES-BJ
  pIC50: < 5.00
NY
  pIC50: < 5.00
LAN-6
  pIC50: 5.36
CAL-120
  pIC50: < 5.00
OVCAR-5
  pIC50: 5.75
5637
  pIC50: < 5.00
NCI-H1581
  pIC50: 5.08
SF-268
  pIC50: < 5.00
COLO-800
  pIC50: < 5.00
C3A
  pIC50: < 5.00
A4-Fuk
  pIC50: 5.80
EW-3
  pIC50: < 5.00
HCC1954
  pIC50: < 5.00
LS-123
  pIC50: < 5.00

## COc1cc([C@@H]2c3cc4c(cc3[C@@H](O[C@@H]3O[C@@H]5CO[C@@H](C)O[C@H]5[C@H](O)[C@H]3O)[C@H]3COC(=O)[C@H]23)OCO4)cc(OC)c1O [ETOPOSIDE]
D283 Med
  pIC50: 5.66
DK-MG
  pIC50: < 4.80
NCI-H2347
  pIC50: 5.01
HCC1937
  pIC50: 4.80
RPMI-2650
  pIC50: 6.24
MC-IXC
  pIC50: 6.94
SK-LMS-1
  pIC50: 6.26
ES6
  pIC50: < 4.80
RD
  pIC50: 5.32
MFH-ino
  pIC50: 6.12
SN12C
  pIC50: 5.72
AN3-CA
  pIC50: 5.66
CAL-51
  pIC50: 5.96
SBC-1
  pIC50: < 4.80
SNU-449
  pIC50: < 4.80
NCI-H1437
  pIC50: 5.47
CAMA-1
  pIC50: 4.89
SK-PN-DW
  pIC50: 6.47
WM-115
  pIC50: < 4.80
EW-11
  pIC50: 5.32
KLE
  pIC50: 4.99
IA-LM
  pIC50: 5.46
NCI-H2122
  pIC50: 5.27
HCC2218
  pIC50: < 4.80
MKN-1
  pIC50: 6.42
Huh-7
  pIC50: 5.59
639-V
  pIC50: 6.00
IST-SL1
  pIC50: < 4.80
ALL-PO
  pIC50: 6.16
SAOS-2
  pIC50: < 4.80
GAK
  pIC50: < 4.80
A388
  pIC50: 5.48
SW982
  pIC50: 6.88
KE-37
  pIC50: 7.39
MDA-MB-453
  pIC50: < 4.80
KS-1
  pIC50: 6.48
BHT-101
  pIC50: 5.51
MEG-01
  pIC50: 5.32
VA-ES-BJ
  pIC50: 6.38
NY
  pIC50: 5.35
LAN-6
  pIC50: < 4.80
CAL-120
  pIC50: 4.81
OVCAR-5
  pIC50: 5.81
5637
  pIC50: 6.06
NCI-H1581
  pIC50: < 4.80
SF-268
  pIC50: 5.59
COLO-800
  pIC50: 5.68
C3A
  pIC50: 5.10
A4-Fuk
  pIC50: 6.08
EW-3
  pIC50: 4.84
HCC1954
  pIC50: 5.00
LS-123
  pIC50: 5.40
